From the supplement of paper PMC10307832

Columns and labels:
Assay in all cases: relative viability (nuclei count vs DMSO), 5 days (fraction); higher = more cells survive
[1] = test system: HOP-62
In short: (§1)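 Relative viability is defined as nuclei in treated wells over nuclei in vehicle wells. Duplicate plates were run and medians reported. Lung cancer cell lines in 1536-well plates were dosed by pin tool one day after seeding, with one drug or with a fixed anchor-drug dose plus five library-drug doses (not always all listed) in √10 steps, and nuclei were counted after 5 days.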

[2] = test system: NCI-H1793
In short: as §1

[3] = test system: UMC-11
In short: as §1

[4] = test system: HCC-15
In short: as §1

[5] = test system: NCI-H1395
In short: as §1

[6] = test system: NCI-H2347
In short: as §1

[7] = test system: NCI-H1993
In short: as §1

[8] = test system: NCI-H2170
In short: as §1

[9] = test system: NCI-H2009
In short: as §1

[10] = test system: NCI-H2228
In short: as §1

[11] = test system: NCI-H1355
In short: as §1

[12] = test system: SK-MES-1
In short: as §1

[13] = test system: NCI-H1734
In short: as §1

[14] = test system: NCI-H522
In short: as §1

[15] = test system: COR-L 105
In short: as §1

[16] = test system: NCI-H358
In short: as §1

[17] = test system: HARA
In short: as §1

[18] = test system: NCI-H647
In short: as §1

[19] = test system: COR-L23
In short: as §1

[20] = test system: NCI-H1755
In short: as §1

[21] = test system: NCI-H838
In short: as §1

Work on `Nc1ccn([C@@H]2O[C@H](CO)[C@@H](O)[C@@H]2O)c(=O)n1` [Cytarabine] + O=C(CCCCCCC(=O)Nc1ccccc1)NO [Vorinostat] (partner 1 µM) yielded a relative viability ([1]; first compound 0.005 µM) of 0.633, a relative viability ([1]; first compound 0.01581 µM) of 0.406 and a relative viability ([1]; first compound 0.05 µM) of 0.437. For the same compound, the relative viability ([1]; first compound 0.1581 µM) was 0.115, the relative viability ([1]; first compound 0.5 µM) was 0.0936 and the relative viability ([2]; first compound 0.005 µM) was 0.631. For the same compound, the relative viability ([2]; first compound 0.01581 µM) was 0.607, the relative viability ([2]; first compound 0.05 µM) was 0.643 and the relative viability ([2]; first compound 0.1581 µM) was 0.352. For the same compound, the relative viability ([2]; first compound 0.5 µM) was 0.186, the relative viability ([3]; first compound 0.005 µM) was 0.285 and the relative viability ([3]; first compound 0.01581 µM) was 0.308. For the same compound, the relative viability ([3]; first compound 0.05 µM) was 0.258, the relative viability ([3]; first compound 0.1581 µM) was 0.19 and the relative viability ([3]; first compound 0.5 µM) was 0.183. The relative viability ([4]; first compound 0.005 µM) was 0.856, the relative viability ([4]; first compound 0.01581 µM) was 0.784 and the relative viability ([4]; first compound 0.05 µM) was 0.775. It also gave a relative viability ([4]; first compound 0.1581 µM) of 0.676, a relative viability ([4]; first compound 0.5 µM) of 0.647 and a relative viability ([5]; first compound 0.005 µM) of 0.692. For the same compound, the relative viability ([5]; first compound 0.01581 µM) was 0.586, the relative viability ([5]; first compound 0.05 µM) was 0.5 and the relative viability ([5]; first compound 0.1581 µM) was 0.357. It also gave a relative viability ([5]; first compound 0.5 µM) of 0.349, a relative viability ([6]; first compound 0.005 µM) of 0.531 and a relative viability ([6]; first compound 0.01581 µM) of 0.586. It also gave a relative viability ([6]; first compound 0.05 µM) of 0.555, a relative viability ([6]; first compound 0.1581 µM) of 0.498 and a relative viability ([6]; first compound 0.5 µM) of 0.409. The relative viability ([7]; first compound 0.005 µM) was 0.865, the relative viability ([7]; first compound 0.01581 µM) was 0.556 and the relative viability ([7]; first compound 0.05 µM) was 0.751. The relative viability ([7]; first compound 0.1581 µM) was 0.503, the relative viability ([7]; first compound 0.5 µM) was 0.602 and the relative viability ([8]; first compound 0.005 µM) was 0.823. The relative viability ([8]; first compound 0.01581 µM) was 0.65, the relative viability ([8]; first compound 0.05 µM) was 0.621 and the relative viability ([8]; first compound 0.1581 µM) was 0.4. The relative viability ([8]; first compound 0.5 µM) was 0.314, the relative viability ([9]; first compound 0.005 µM) was 0.751 and the relative viability ([9]; first compound 0.01581 µM) was 0.698. It also gave a relative viability ([9]; first compound 0.05 µM) of 0.71, a relative viability ([9]; first compound 0.1581 µM) of 0.52 and a relative viability ([9]; first compound 0.5 µM) of 0.198. For the same compound, the relative viability ([10]; first compound 0.005 µM) was 0.472, the relative viability ([10]; first compound 0.01581 µM) was 0.275 and the relative viability ([10]; first compound 0.05 µM) was 0.197. For the same compound, the relative viability ([10]; first compound 0.1581 µM) was 0.106, the relative viability ([10]; first compound 0.5 µM) was 0.0947 and the relative viability ([11]; first compound 0.005 µM) was 0.578. It also gave a relative viability ([11]; first compound 0.01581 µM) of 0.638, a relative viability ([11]; first compound 0.05 µM) of 0.64 and a relative viability ([11]; first compound 0.1581 µM) of 0.458. It also gave a relative viability ([11]; first compound 0.5 µM) of 0.299, a relative viability ([12]; first compound 0.005 µM) of 0.851 and a relative viability ([12]; first compound 0.01581 µM) of 0.778. The relative viability ([12]; first compound 0.05 µM) was 0.6, the relative viability ([12]; first compound 0.1581 µM) was 0.283 and the relative viability ([12]; first compound 0.5 µM) was 0.233. For the same compound, the relative viability ([13]; first compound 0.005 µM) was 0.493, the relative viability ([13]; first compound 0.01581 µM) was 0.361 and the relative viability ([13]; first compound 0.05 µM) was 0.317. It also gave a relative viability ([13]; first compound 0.1581 µM) of 0.138, a relative viability ([13]; first compound 0.5 µM) of 0.125 and a relative viability ([14]; first compound 0.005 µM) of 0.993. It also gave a relative viability ([14]; first compound 0.01581 µM) of 0.837, a relative viability ([14]; first compound 0.05 µM) of 0.694 and a relative viability ([14]; first compound 0.1581 µM) of 0.615. The relative viability ([14]; first compound 0.5 µM) was 0.563, the relative viability ([15]; first compound 0.005 µM) was 0.816 and the relative viability ([15]; first compound 0.01581 µM) was 0.79. The relative viability ([15]; first compound 0.05 µM) was 0.55, the relative viability ([15]; first compound 0.1581 µM) was 0.583 and the relative viability ([15]; first compound 0.5 µM) was 0.418. It also gave a relative viability ([16]; first compound 0.005 µM) of 0.632, a relative viability ([16]; first compound 0.01581 µM) of 0.557 and a relative viability ([16]; first compound 0.05 µM) of 0.538. For the same compound, the relative viability ([16]; first compound 0.1581 µM) was 0.178, the relative viability ([16]; first compound 0.5 µM) was 0.113 and the relative viability ([17]; first compound 0.005 µM) was 0.694. The relative viability ([17]; first compound 0.01581 µM) was 0.44, the relative viability ([17]; first compound 0.05 µM) was 0.52 and the relative viability ([17]; first compound 0.1581 µM) was 0.458. It also gave a relative viability ([17]; first compound 0.5 µM) of 0.347, a relative viability ([18]; first compound 0.005 µM) of 0.284 and a relative viability ([18]; first compound 0.01581 µM) of 0.294. For the same compound, the relative viability ([18]; first compound 0.05 µM) was 0.149, the relative viability ([18]; first compound 0.1581 µM) was 0.0878 and the relative viability ([18]; first compound 0.5 µM) was 0.0778. The relative viability ([19]; first compound 0.005 µM) was 0.376, the relative viability ([19]; first compound 0.01581 µM) was 0.404 and the relative viability ([19]; first compound 0.05 µM) was 0.304. The relative viability ([19]; first compound 0.1581 µM) was 0.136, the relative viability ([20]; first compound 0.005 µM) was 0.823 and the relative viability ([20]; first compound 0.01581 µM) was 0.794. It also gave a relative viability ([20]; first compound 0.05 µM) of 0.685, a relative viability ([20]; first compound 0.1581 µM) of 0.502 and a relative viability ([20]; first compound 0.5 µM) of 0.375. It also gave a relative viability ([21]; first compound 0.005 µM) of 0.715, a relative viability ([21]; first compound 0.01581 µM) of 0.651 and a relative viability ([21]; first compound 0.05 µM) of 0.654. For the same compound, the relative viability ([21]; first compound 0.1581 µM) was 0.515 and the relative viability ([21]; first compound 0.5 µM) was 0.318.
